According to patent publication US20100069380A1 (published 2010):

melting point: > 300 °C
SMILES: Nc1ccc(Sc2c(O)c3c(=O)n(-c4ccccc4)c4ccccc4c3oc2=O)cc1
